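96-well plates; 48 h exposure; 5 concentrations. Endpoints by linear interpolation between flanking doses. Not reached: highest tested concentration assigned. TGI is the concentration that stops growth completely.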
Key:
Experiment in all cases: inhibition of tumour cell growth, NCI panel, 48 h
M14 melanoma = test system: M14 melanoma
OVCAR-5 ovarian = test system: OVCAR-5 ovarian
K-562 leukemia = test system: K-562 leukemia
HOP-62 NSCLC = test system: HOP-62 NSCLC
SK-MEL-2 melanoma = test system: SK-MEL-2 melanoma
MDA-MB-231 breast = test system: MDA-MB-231 breast
HL-60(TB) leukemia = test system: HL-60(TB) leukemia
HOP-92 NSCLC = test system: HOP-92 NSCLC
OVCAR-8 ovarian = test system: OVCAR-8 ovarian
MCF7 breast = test system: MCF7 breast

Question: `CC1(C)C=CC(=O)C(O)C(C)(C)C1=O` (configuration not stated) was tested. Which TGI (M14 melanoma) did it give?
Answer: Its TGI is > 100 µM.

Question: And the TGI (OVCAR-5 ovarian)?
Answer: The TGI was > 100 µM.

Question: And the TGI (K-562 leukemia)?
Answer: Its TGI is > 100 µM.

Question: What about the TGI (HOP-62 NSCLC) of the same molecule?
Answer: Its TGI is > 100 µM.

Question: What about the TGI (SK-MEL-2 melanoma) of the same molecule?
Answer: Its TGI is > 100 µM.

Question: And the TGI (MDA-MB-231 breast)?
Answer: The TGI was > 100 µM.

Question: What about the TGI (HL-60(TB) leukemia) of the same molecule?
Answer: Its TGI is > 100 µM.

Question: What about the TGI (HOP-92 NSCLC) of the same molecule?
Answer: The TGI was > 100 µM.

Question: And the TGI (OVCAR-8 ovarian)?
Answer: The TGI was > 100 µM.

Question: For `CNc1[nH]c(=S)nc2sc3c(c12)CCCC3`, which TGI (OVCAR-5 ovarian) is on record?
Answer: The TGI was > 75 µM.

Question: What about the TGI (K-562 leukemia) of the same molecule?
Answer: Its TGI is > 75 µM.

Question: What about the TGI (HOP-62 NSCLC) of the same molecule?
Answer: The TGI was > 75 µM.

Question: And the TGI (SK-MEL-2 melanoma)?
Answer: The TGI was > 75 µM.

Question: And the TGI (MCF7 breast)?
Answer: The TGI was > 75 µM.

Question: And the TGI (MDA-MB-231 breast)?
Answer: The TGI was > 75 µM.

Question: What about the TGI (HL-60(TB) leukemia) of the same molecule?
Answer: The TGI was > 75 µM.

Question: What about the TGI (OVCAR-8 ovarian) of the same molecule?
Answer: The TGI was > 75 µM.

Question: With `O[C@H]1[C@H](O)[C@@H](O)CN2CC[C@H](O)[C@H]12` as the molecule, how does the TGI (OVCAR-5 ovarian) read?
Answer: The TGI was > 100 µM.

Question: And the TGI (K-562 leukemia)?
Answer: The TGI was > 100 µM.

Question: What about the TGI (HOP-62 NSCLC) of the same molecule?
Answer: The TGI was > 100 µM.

Question: What about the TGI (SK-MEL-2 melanoma) of the same molecule?
Answer: Its TGI is > 100 µM.

Question: What about the TGI (MCF7 breast) of the same molecule?
Answer: The TGI was > 100 µM.

Question: What about the TGI (HL-60(TB) leukemia) of the same molecule?
Answer: Its TGI is > 39.8 µM.

Question: And the TGI (HOP-92 NSCLC)?
Answer: The TGI was > 100 µM.

Question: And the TGI (OVCAR-8 ovarian)?
Answer: Its TGI is > 100 µM.

Question: With `Cc1cc(C)nc(NC(=S)Nc2ccc([N+](=O)[O-])cc2)c1` as the molecule, how does the TGI (K-562 leukemia) read?
Answer: The TGI was > 100 µM.

Question: What about the TGI (HOP-62 NSCLC) of the same molecule?
Answer: The TGI was > 100 µM.

Question: What about the TGI (SK-MEL-2 melanoma) of the same molecule?
Answer: The TGI was > 100 µM.

Question: And the TGI (MCF7 breast)?
Answer: Its TGI is > 100 µM.

Question: What about the TGI (MDA-MB-231 breast) of the same molecule?
Answer: The TGI was > 100 µM.

Question: And the TGI (HL-60(TB) leukemia)?
Answer: Its TGI is > 100 µM.

Question: What about the TGI (HOP-92 NSCLC) of the same molecule?
Answer: The TGI was > 100 µM.

Question: What about the TGI (OVCAR-8 ovarian) of the same molecule?
Answer: The TGI was > 100 µM.

Question: How did the TGI (OVCAR-5 ovarian) turn out when `O=C(NCCCl)O/N=C/c1cccnc1` was run?
Answer: Its TGI is > 100 µM.

Question: And the TGI (K-562 leukemia)?
Answer: Its TGI is > 100 µM.

Question: What about the TGI (HOP-62 NSCLC) of the same molecule?
Answer: The TGI was > 100 µM.

Question: And the TGI (SK-MEL-2 melanoma)?
Answer: Its TGI is > 100 µM.

Question: And the TGI (MCF7 breast)?
Answer: Its TGI is > 100 µM.

Question: What about the TGI (HL-60(TB) leukemia) of the same molecule?
Answer: The TGI was > 100 µM.

Question: And the TGI (HOP-92 NSCLC)?
Answer: Its TGI is > 100 µM.

Question: And the TGI (OVCAR-8 ovarian)?
Answer: The TGI was > 100 µM.

Question: What does the source list for `O=C(c1ccccc1)c1ccc2c(c1)NC(=O)c1ccccc1SSc1ccccc1C(=O)N2`?
Answer: TGI (M14 melanoma): > 100 µM; TGI (OVCAR-5 ovarian): > 100 µM; TGI (K-562 leukemia): > 100 µM; TGI (HOP-62 NSCLC): > 100 µM; TGI (SK-MEL-2 melanoma): > 100 µM; TGI (MDA-MB-231 breast): > 100 µM; TGI (HL-60(TB) leukemia): > 100 µM; TGI (HOP-92 NSCLC): > 100 µM; TGI (OVCAR-8 ovarian): > 100 µM

Question: Which results are given for `COc1cc(C=O)ccc1O`?
Answer: TGI (M14 melanoma): > 100 µM; TGI (OVCAR-5 ovarian): > 100 µM; TGI (K-562 leukemia): > 100 µM; TGI (HOP-62 NSCLC): > 100 µM; TGI (MCF7 breast): > 100 µM; TGI (MDA-MB-231 breast): > 100 µM; TGI (HL-60(TB) leukemia): > 100 µM; TGI (HOP-92 NSCLC): > 100 µM; TGI (OVCAR-8 ovarian): > 100 µM

Question: Which TGI (M14 melanoma) does the source give for `CSc1nc2c(c(N(C)C)n1)C(O)n1c(nc3ccccc31)S2` (configuration not stated) here?
Answer: The TGI was > 100 µM.

Question: And the TGI (OVCAR-5 ovarian)?
Answer: The TGI was > 100 µM.

Question: And the TGI (K-562 leukemia)?
Answer: The TGI was > 100 µM.

Question: And the TGI (HOP-62 NSCLC)?
Answer: The TGI was 69.1 µM.

Question: What about the TGI (SK-MEL-2 melanoma) of the same molecule?
Answer: Its TGI is > 100 µM.

Question: What about the TGI (MCF7 breast) of the same molecule?
Answer: The TGI was > 100 µM.

Question: What about the TGI (MDA-MB-231 breast) of the same molecule?
Answer: Its TGI is > 100 µM.

Question: And the TGI (HOP-92 NSCLC)?
Answer: Its TGI is > 74.5 µM.

Question: And the TGI (OVCAR-8 ovarian)?
Answer: The TGI was > 56.8 µM.

Question: For `O=C(CNc1ccc(Cl)cc1Cl)Nn1c(-c2ccccc2)nc2ccccc2c1=O`, which TGI (M14 melanoma) is on record?
Answer: Its TGI is 30.8 µM.

Question: And the TGI (OVCAR-5 ovarian)?
Answer: The TGI was 37.5 µM.

Question: And the TGI (K-562 leukemia)?
Answer: The TGI was 36.5 µM.

Question: And the TGI (MCF7 breast)?
Answer: Its TGI is 27.4 µM.

Question: And the TGI (MDA-MB-231 breast)?
Answer: The TGI was 36.7 µM.

Question: What about the TGI (HL-60(TB) leukemia) of the same molecule?
Answer: Its TGI is > 100 µM.

Question: What about the TGI (HOP-92 NSCLC) of the same molecule?
Answer: Its TGI is 22.7 µM.

Question: What about the TGI (OVCAR-8 ovarian) of the same molecule?
Answer: Its TGI is > 100 µM.

Question: How did the TGI (M14 melanoma) turn out when `CCOC(=O)/C(C(C)=O)=C(\OC(C)=O)c1ccncc1C(=O)O` was run?
Answer: Its TGI is > 100 µM.

Question: What about the TGI (OVCAR-5 ovarian) of the same molecule?
Answer: The TGI was > 100 µM.

Question: And the TGI (K-562 leukemia)?
Answer: The TGI was > 100 µM.

Question: What about the TGI (SK-MEL-2 melanoma) of the same molecule?
Answer: Its TGI is > 100 µM.

Question: And the TGI (MCF7 breast)?
Answer: Its TGI is > 100 µM.

Question: And the TGI (MDA-MB-231 breast)?
Answer: Its TGI is > 100 µM.

Question: And the TGI (HL-60(TB) leukemia)?
Answer: Its TGI is > 100 µM.

Question: What about the TGI (HOP-92 NSCLC) of the same molecule?
Answer: Its TGI is > 100 µM.

Question: And the TGI (OVCAR-8 ovarian)?
Answer: Its TGI is > 100 µM.

Question: What does the source list for `Clc1sc(Cl)c2c1[C@@H](Cl)C[C@@H]2Br`?
Answer: TGI (M14 melanoma): > 100 µM; TGI (OVCAR-5 ovarian): > 100 µM; TGI (K-562 leukemia): > 100 µM; TGI (HOP-62 NSCLC): > 100 µM; TGI (SK-MEL-2 melanoma): > 100 µM; TGI (MCF7 breast): > 100 µM; TGI (MDA-MB-231 breast): > 100 µM; TGI (HOP-92 NSCLC): > 100 µM; TGI (OVCAR-8 ovarian): > 100 µM

Question: `CN1CCN(Cc2cc3c(nn2)-c2ccccc2C3=O)CC1` was tested. Which TGI (M14 melanoma) did it give?
Answer: Its TGI is > 100 µM.

Question: And the TGI (OVCAR-5 ovarian)?
Answer: Its TGI is > 100 µM.

Question: And the TGI (K-562 leukemia)?
Answer: Its TGI is > 100 µM.

Question: And the TGI (SK-MEL-2 melanoma)?
Answer: The TGI was > 100 µM.

Question: What about the TGI (MCF7 breast) of the same molecule?
Answer: Its TGI is > 100 µM.

Question: What about the TGI (HL-60(TB) leukemia) of the same molecule?
Answer: Its TGI is 72.5 µM.

Question: What about the TGI (HOP-92 NSCLC) of the same molecule?
Answer: The TGI was > 100 µM.

Question: What about the TGI (OVCAR-8 ovarian) of the same molecule?
Answer: Its TGI is > 100 µM.

Source: PubChem BioAssay (NCI)
